# Data published in US9492496B2, “Aminothiazoles and their uses” (Novartis AG, priority 2007, dated 2016).
# Tested on: prokaryotic transcription-translation (E. coli S30 extract)
# Experiment: In vitro assay for inhibition of prokaryotic transcription-translation (Promega E. coli S30 Extract System, pBESTluc luciferase readout)
# Assay type: biochemical
# Conditions: 2 uM compound, 2 h at 37° C., luciferase luminescence
# Experimental: In vitro assay for inhibition of prokaryotic transcription-translation [as described in the following references: 1. Zubay, G. (1973) In vitro synthesis of protein in microbial systems. Annu. Rev. Genet. 7, 267.87. 2. Zubay, G. (1980) The isolation and properties of CAP, the catabolite gene activator. Meth. Enzymol. 65, 856.77]. Antibiotic and compound dilutions: stock solutions of compound to be assayed at 2 μM are 80 μM in 40% DMSO. Stock solutions of compounds to be assayed at 10 μM are 400 μM in 40% DMSO.
# Assay setup and protocol for Promega E. coli S30 Extract System
# The assay is performed as follows: pipet 3.5 μl of 286 ng/μl template DNA (pBESTluc™) into assay wells. Negative control wells receive sdH2O only. Transfer 0.5 μl of 40× compound stock solution to assay wells. Positive control wells (no compound) receive 0.5 μl 40% DMSO sdH2O. Pipet 16 μl of master mix into assay wells. Incubate plate for two hours at 37° C. Rapidly chill the assay plate on ice for five minutes to stop the reaction. Add an equal volume (20 μl) of room temperature Steady-Glo® Luciferase assay reagent to all assay wells. Incubate 20 minutes and read light emitted with luminometer. Results are reported as % inhibition a 2 μM or 10 μM.
row,SMILES,% inh. @ 2 uM
1,CNC(=O)C[C@@H]1NC(=O)c2csc(n2)-c2ccc(-c3nc(NC(=O)N(CCCC(=O)O)[C@H]4CC[C@H](C(=O)O)CC4)cs3)nc2-c2csc(n2)-c2csc(n2)[C@H]([C@@H](O)c2ccccc2)NC(=O)CNC(=O)c2nc(sc2COC)C(C(C)C)NC(=O)c2nc1sc2C (stereo partly shown) [Compound 23],2 uM = 79.8%
2,CNC(=O)C[C@@H]1NC(=O)c2csc(n2)-c2ccc(-c3nc(N(CCOCC(=O)O)C(=O)O[C@H]4CC[C@H](C(=O)O)CC4)cs3)nc2-c2csc(n2)-c2csc(n2)[C@H]([C@@H](O)c2ccccc2)NC(=O)CNC(=O)c2nc(sc2COC)C(C(C)C)NC(=O)c2nc1sc2C (stereo partly shown) [Compound 24],2 uM = 70.3%
3,CNC(=O)C[C@@H]1NC(=O)c2csc(n2)-c2ccc(-c3nc(N(CCCCC(=O)O)C(=O)O[C@H]4CC[C@](CCCCC(=O)O)(C(=O)OC)CC4)cs3)nc2-c2csc(n2)-c2csc(n2)[C@H]([C@@H](O)c2ccccc2)NC(=O)CNC(=O)c2nc(sc2COC)C(C(C)C)NC(=O)c2nc1sc2C (stereo partly shown) [Compound 25],2 uM = 83.7%
4,CNC(=O)C[C@@H]1NC(=O)c2csc(n2)-c2ccc(-c3nc(N(CCCCC(=O)O)C(=O)OC(CCCCC(=O)O)CCC(=O)O)cs3)nc2-c2csc(n2)-c2csc(n2)[C@H]([C@@H](O)c2ccccc2)NC(=O)CNC(=O)c2nc(sc2COC)C(C(C)C)NC(=O)c2nc1sc2C (stereo partly shown) [Compound 26],2 uM = 68.2%
5,CNC(=O)C[C@@H]1NC(=O)c2csc(n2)-c2ccc(-c3nc(N(CCCCC(=O)O)C(=O)OCC4CC4C(=O)O)cs3)nc2-c2csc(n2)-c2csc(n2)[C@H]([C@@H](O)c2ccccc2)NC(=O)CNC(=O)c2nc(sc2COC)C(C(C)C)NC(=O)c2nc1sc2C (stereo partly shown) [Compound 27],2 uM = 81.9%
6,CNC(=O)C[C@@H]1NC(=O)c2csc(n2)-c2ccc(-c3nc(N(CCCCC(CCC(=O)O)C(=O)O)C(=O)O[C@H]4CC[C@H](C(=O)O)CC4)cs3)nc2-c2csc(n2)-c2csc(n2)[C@H]([C@@H](O)c2ccccc2)NC(=O)CNC(=O)c2nc(sc2COC)C(C(C)C)NC(=O)c2nc1sc2C (stereo partly shown) [Compound 28],2 uM = 77.0%
7,CNC(=O)C[C@@H]1NC(=O)c2csc(n2)-c2ccc(-c3nc(N(CCCCC(=O)O)C(=O)O[C@H]4CC[C@H](C(=O)O)C[C@@H]4CCCCC(=O)O)cs3)nc2-c2csc(n2)-c2csc(n2)[C@H]([C@@H](O)c2ccccc2)NC(=O)CNC(=O)c2nc(sc2COC)C(C(C)C)NC(=O)c2nc1sc2C (stereo partly shown) [Compound 29],2 uM = 79.6%
8,CNC(=O)C[C@@H]1NC(=O)c2csc(n2)-c2ccc(-c3nc(N(CCCCC(=O)O)C(=O)OCCC(CCCCC(=O)O)C(=O)O)cs3)nc2-c2csc(n2)-c2csc(n2)[C@H]([C@@H](O)c2ccccc2)NC(=O)CNC(=O)c2nc(sc2COC)C(C(C)C)NC(=O)c2nc1sc2C (stereo partly shown) [Compound 30],2 uM = 83.93%
9,CNC(=O)C[C@@H]1NC(=O)c2csc(n2)-c2ccc(-c3nc(N(CCCC(CCCCCCC(=O)O)C(=O)O)C(=O)O[C@H]4CC[C@H](C(=O)O)CC4)cs3)nc2-c2csc(n2)-c2csc(n2)[C@H]([C@@H](O)c2ccccc2)NC(=O)CNC(=O)c2nc(sc2COC)C(C(C)C)NC(=O)c2nc1sc2C (stereo partly shown) [Compound 31],2 uM = 79.4%
10,CNC(=O)C[C@@H]1NC(=O)c2csc(n2)-c2ccc(-c3nc(N(CCCCC(=O)O)C(=O)OCC(CCCCC(=O)O)CC(=O)O)cs3)nc2-c2csc(n2)-c2csc(n2)[C@H]([C@@H](O)c2ccccc2)NC(=O)CNC(=O)c2nc(sc2COC)C(C(C)C)NC(=O)c2nc1sc2C (stereo partly shown) [Compound 32],2 uM = 78.0%
11,CNC(=O)C[C@@H]1NC(=O)c2csc(n2)-c2ccc(-c3nc(N(CCCCC(=O)O)C(=O)O[C@H]4CC[C@@](CCCCC(=O)O)(C(=O)O)CC4)cs3)nc2-c2csc(n2)-c2csc(n2)[C@H]([C@@H](O)c2ccccc2)NC(=O)CNC(=O)c2nc(sc2COC)C(C(C)C)NC(=O)c2nc1sc2C (stereo partly shown) [Compound 33],2 uM = 46.8%
12,CNC(=O)C[C@@H]1NC(=O)c2csc(n2)-c2ccc(-c3nc(N(CCCCC(=O)O)C(=O)O[C@]4(CCCCC(=O)O)CC[C@@H](C(=O)O)CC4)cs3)nc2-c2csc(n2)-c2csc(n2)[C@H]([C@@H](O)c2ccccc2)NC(=O)CNC(=O)c2nc(sc2COC)C(C(C)C)NC(=O)c2nc1sc2C (stereo partly shown) [Compound 34],2 uM = 63.1%
13,CNC(=O)C[C@@H]1NC(=O)c2csc(n2)-c2ccc(-c3nc(NC(=O)OCCC(CCCCC(=O)O)C(=O)O)cs3)nc2-c2csc(n2)-c2csc(n2)[C@H]([C@@H](O)c2ccccc2)NC(=O)CNC(=O)c2nc(sc2COC)C(C(C)C)NC(=O)c2nc1sc2C (stereo partly shown) [Compound 35],2 uM = 87.0%
